Values quoted from earlier work as cited in patent publication US20030077264A1, “Antimicrobial blood treatment using allicin and related compounds” (priority 2001, published 2003).

Assays:
Helicobacter pylori = settings: in medium
[1] = buffer

thio-2-propene-1-sulfinic acid S-allyl ester [Allicin]
minimum inhibitory concentration (Helicobacter pylori): 4.0 µg/mL
half-life [1]: 30 to 40 days
